The values below come from patent publication US11639446B2, “Cationic electrodeposition coating composition” (KANSAI PAINT CO., LTD., priority 2017, dated 2023).

A short description of the series: Water solubility of catalyst.
As for `CCCCCCC[CH2][Sn](=[O])[CH2]CCCCCCC` [Dioctyltin oxide, reference compound], the “Water solubility of catalyst” value is recorded as “Insoluble”. To `Cn1cc[n+](C)c1C(=O)[O-]` [modified imidazole A, 1,3-dimethylimidazolium-2-carboxylate] belongs “Soluble”; to `CCCC[n+]1ccn(C)c1C(=O)[O-]` [modified imidazole B], “Soluble”; to `Cn1cc[n+](C)c1/C([O-])=N\c1ccccc1` [modified imidazole C], “Insoluble”. To `CCCCCCCC[n+]1ccn(C)c1/C([O-])=N\c1ccccc1` [modified imidazole E] belongs “Insoluble”. To `CCCCCCCCn1cc[n+](CCCCCCCC)c1/C([O-])=N\c1ccccc1` [modified imidazole F] belongs “Insoluble”; to `Cn1cc[n+](C)c1.[Cl-]` [reference compound], “Soluble”.
